From patent publication US20070021451A1, “Method for preventing or treating neurologic damage after spinal cord injury” (HAMAMATSU UNIVERSITY SCHOOL OF MEDICINE, priority 2005, published 2007)

Key:
[1] = tested on: Rabbit Model of Spinal Cord Ischemia; assay: TUNEL staining of motor neurons (mid lumbar segment); assay type: in vivo, New Zealand White rabbits; conditions: NS-7 15 minutes before ischemia or at the onset of reperfusion; P<0.05 vs control (FIG. 6)
Experimental: Twenty-six male New Zealand White rabbits weighting 2.2 to 3.0 kg were used in this experiment. Spinal cord ischemia was induced by occluding the abdominal aorta with […] for 20 minutes just distal to the renal arteries. Surgical preparation was conducted according to the method described in the literature, Terada H. et. al., J. Thorac. Cardiovasc. Surg. 2001; 122: 979-85. A 24-gauge venous catheter was placed in the marginal ear vein for drug administration. The rabbits were anesthetized with intravenous sodium pentobarbital (25 mg/kg) and allowed to breathe spontaneously. Lidocaine (0.5%) was administered at the site of the skin incision as local anesthesia. The left common carotid artery was cannulated with a 24-gauge catheter for monitoring the arterial pressure. Core body temperature was continuously monitored with a rectal probe and was maintained at 38.5° C. with the aid of heating lamp. The infrarenal abdominal aorta was exposed through a transperitoneal approach. […] The number of motor neurons that were positive in TUNEL staining was counted in 3 sections, and the values were averaged (Sakurai M., J. Thorac. Cardiovasc. Surg. 2000; 120: 1148-57, Lang-Lazdunski L., J. Vasc. Surg. 2003; 38: 564-75). […]

[2] = tested on: Rabbit Model of Spinal Cord Ischemia; assay: Neurologic assessment: hind-limb motor function by modified Tarlov scale; assay type: in vivo, New Zealand White rabbits
Experimental: Twenty-six male New Zealand White rabbits weighting 2.2 to 3.0 kg were used in this experiment. Spinal cord ischemia was induced by occluding the abdominal aorta with […] for 20 minutes just distal to the renal arteries. Surgical preparation was conducted according to the method described in the literature, Terada H. et. al., J. Thorac. Cardiovasc. Surg. 2001; 122: 979-85. A 24-gauge venous catheter was placed in the marginal ear vein for drug administration. The rabbits were anesthetized with intravenous sodium pentobarbital (25 mg/kg) and allowed to breathe spontaneously. Lidocaine (0.5%) was administered at the site of the skin incision as local anesthesia. The left common carotid artery was cannulated with a 24-gauge catheter for monitoring the arterial pressure. Core body temperature was continuously monitored with a rectal probe and was maintained at 38.5° C. with the aid of heating lamp. The infrarenal abdominal aorta was exposed through a transperitoneal approach. After systemic heparinization (200 U/kg), spinal cord ischemia was induced by occluding the abdominal aorta with […] for 20 minutes just distal to the renal arteries and just above the aortic bifurcation. Then, the […] released, and the flank was closed. […] The rabbits were assigned randomly to 1 of the 4 groups and subjected to the treatment of (1) above in the following manner. The sham group (n=3) underwent the same operation without aortic occlusion. The control group (n=7) received saline (1 ml) intravenously 15 minutes before aortic occlusion. NS-7 (1 mg/kg) was administered intravenously as a bolus dose 15 minutes before aortic occlusion in group A (n=8) or just after releasing the […] onset of reperfusion) in group B (n=8). Hind-limb motor function was scored 24 and 48 hours after the operation by the modified Tarlov scale.

[3] = Group A (n = 8, NS-7 1 mg/kg i.v. 15 min before aortic occlusion), 24 h after operation
[4] = Group A (n = 8, NS-7 1 mg/kg i.v. 15 min before aortic occlusion), 48 h after operation
[5] = Group B (n = 8, NS-7 1 mg/kg i.v. at onset of reperfusion), 24 h after operation
[6] = Group B (n = 8, NS-7 1 mg/kg i.v. at onset of reperfusion), 48 h after operation

Cc1cc(-c2ccc(F)cc2)cc(OCCCCCN2CCCCC2)n1.Cl [NS-7, 4-(4-Fluorophenyl)-2-methyl-6-(5-piperidinopentyloxy)pyridine hydrochloride]
Total number of apoptotic (TUNEL-positive) motor neurons [1]: strongly reduced | Number of rabbits with Tarlov score 0 [2, 3]: 0 | Number of rabbits with Tarlov score 1 [2, 3]: 0 | Number of rabbits with Tarlov score 2 [2, 3]: 0 | Number of rabbits with Tarlov score 3 [2, 3]: 2 | Number of rabbits with Tarlov score 4 [2, 3]: 3 | Number of rabbits with Tarlov score 5 [2, 3]: 3 | Number of rabbits with Tarlov score 0 [2, 4]: 0 | Number of rabbits with Tarlov score 1 [2, 4]: 0 | Number of rabbits with Tarlov score 2 [2, 4]: 1 | Number of rabbits with Tarlov score 3 [2, 4]: 2 | Number of rabbits with Tarlov score 4 [2, 4]: 4 | Number of rabbits with Tarlov score 5 [2, 4]: 1 | Number of rabbits with Tarlov score 0 [2, 5]: 0 | Number of rabbits with Tarlov score 1 [2, 5]: 0 | Number of rabbits with Tarlov score 2 [2, 5]: 0 | Number of rabbits with Tarlov score 3 [2, 5]: 2 | Number of rabbits with Tarlov score 4 [2, 5]: 1 | Number of rabbits with Tarlov score 5 [2, 5]: 5 | Number of rabbits with Tarlov score 0 [2, 6]: 0 | Number of rabbits with Tarlov score 1 [2, 6]: 0 | Number of rabbits with Tarlov score 2 [2, 6]: 1 | Number of rabbits with Tarlov score 3 [2, 6]: 2 | Number of rabbits with Tarlov score 4 [2, 6]: 1 | Number of rabbits with Tarlov score 5 [2, 6]: 4 | Recovery of motor function in the hind limbs ([2]; group A and B, 24 hours and 48 hours after the operation, P<0.01 vs control): remarkably enhanced
